Results as given in article PMC7175277, “Hydroxylamine Analogue of Agmatine: Magic Bullet for Arginine Decarboxylase” (Biomolecules, 2020).
“Also recorded” adds a separate entry of the source.

Legend:
[1] = set-up: method as in PMID 7896733; conditions: 48 h; absence of amine oxidase inhibitor; cited from earlier work
E. coli ADC [2] = target: T1, E. coli ADC (Escherichia coli, UniProt P21170); assay: E. coli ADC activity assay (HPLC of agmatine); format: biochemical; conditions: 0.1 mM PLP; 15 min preincubation; 0.15 mM L-Arg
T1 construct: The kinetic parameters determined for the partially purified biosynthetic ADC from E. coli; endogenous in cells; host or cells: E. coli DH5α (39-53% ammonium sulphate fraction of the lysate, desalted)
T1 sequence (P21170 1-658): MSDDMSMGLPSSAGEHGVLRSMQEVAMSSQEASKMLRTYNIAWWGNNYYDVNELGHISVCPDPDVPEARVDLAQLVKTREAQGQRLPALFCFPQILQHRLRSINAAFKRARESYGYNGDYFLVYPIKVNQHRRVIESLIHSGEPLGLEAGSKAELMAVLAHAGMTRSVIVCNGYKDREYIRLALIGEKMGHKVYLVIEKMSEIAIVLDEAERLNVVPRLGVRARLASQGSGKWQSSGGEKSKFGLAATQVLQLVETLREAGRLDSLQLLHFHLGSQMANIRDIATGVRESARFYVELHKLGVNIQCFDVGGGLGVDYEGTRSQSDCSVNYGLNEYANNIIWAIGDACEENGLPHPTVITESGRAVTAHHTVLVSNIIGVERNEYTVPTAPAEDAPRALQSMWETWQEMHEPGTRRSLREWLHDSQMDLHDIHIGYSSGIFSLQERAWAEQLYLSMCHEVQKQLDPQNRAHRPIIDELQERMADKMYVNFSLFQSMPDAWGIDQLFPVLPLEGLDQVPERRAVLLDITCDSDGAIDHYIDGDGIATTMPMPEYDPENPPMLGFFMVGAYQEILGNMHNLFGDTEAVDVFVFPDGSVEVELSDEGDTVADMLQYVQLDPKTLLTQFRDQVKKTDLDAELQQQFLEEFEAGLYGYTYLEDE
Experimental: The purification was performed using a modified procedure of earlier publication. E. coli strain DH5α was grown in Luria-Bertani broth at +37 °C with shaking (200 rpm) overnight. The cells were collected by centrifugation and the pellet was homogenized with Potter-Elvehjem in 10 volumes (w/v) of ice-cold 50 mM Tris-HCl pH 7.4, 1 mM DTT. The cell debris was removed by centrifugation at 12,000 g for 30 min at +4 °C. Solid (NH4)2SO4 was added to the supernatant, and the pellet precipitating between 39% and 53% saturation was separated. The precipitate was resuspended in ice-cold buffer containing 50 mM Tris-HCl pH 7.4 and 1 mM DTT and desalted by passage through Sephadex G-25 column (NAP-10 column, GE Healthcare). The protein concentration was measured with Bio-Rad protein reagent, and the partially purified enzyme preparation was mixed with 20% glycerol and aliquoted for storage at −80 °C.
[…] The ODC reaction mixture contained 50 mM Tris-HCl pH 7.8, 1 mM EDTA, 2.4 mM DTT, 0.1 mM PLP and 20 μg of partially purified enzyme preparation. The mixtures were either preincubated or not preincubated for 15 min at +40 °C in the presence of the inhibitor, after which the reaction was started by the addition of 18 μL of 10× substrate (L-Arg for ADC and L-Orn for ODC). After incubation for 30 min (ADC) or 20 min (ODC) at +40 °C, 20 μL of 50% sulphosalicylic acid containing 50 μM diaminoheptane (internal standard) was added and the samples were analyzed for the content of agmatine (ADC) and Put (ODC) with HPLC as described previously. The kinetic parameters and IC50 values were determined with the aid of GraphPad Prism version 5.03 using nonlinear regression analysis.

[3] = tested on: Acremonium chrysogenum wild-type (WT) ATCC 11550; assay: Fungal growth inhibition (drop-dilution, CD agar), WT strain; format: cell-based
Text: (§1) Two strains of Acremonium chrysogenum were used in this study: the wild-type (Brotzu) isolate ATCC 11550 (WT) and high-cephalosporin-yielding RNCM F-4081D (HY), derived from the WT [37]. The cultivation conditions were the same as previously described. The filamentous fungi were cultivated on agarized Czapek-Dox (CD) medium (30 g/L sucrose, 2 g/L NaNO3, 1 g/L K2HPO4, 0.5 g/L MgSO4×7 H2O, 0.5 g/L KCl, 0.01 g/L FeSO4×7 H2O, 20 g/L agar, pH 7.0–7.4). To determine the toxic effect of AO-Agm, APA, DFMA and DFMO on the growth of fungal cells the drop-dilution method was used with some modifications as described earlier. Cells were collected from agar slants and diluted with 0.9% NaCl solution up to OD600 = 0.5 (basic concentration), followed by serial tenfold dilutions with the same solution. […] The inoculated Petri dishes were incubated for 21 days at 26 °C. The inhibitory effects of the compounds were measured every three days after inoculation and evaluated by measuring the ratio of colony growth on agarized CD medium supplemented with AO-Agm, APA, DFMA, or DFMO to the growth in the control (agarized CD medium without any additions). The formula: growth inhibition % = [(Dc − Dt)/Dc] × 100, where Dc indicates the colony diameter in control set, and Dt indicates the colony diameter in the treatment set that was used to determine the percent of fungal growth inhibition. The data recorded were measured in triplicate and repeated at least twice.

mammalian ODC = tested on: mammalian ODC; set-up: method as in PMID 3841480, PMID 1573631; conditions: cited from earlier work
[4] = tested on: Acremonium chrysogenum high-cephalosporin-yielding (HY) RNCM F-4081D; assay: Fungal growth inhibition (drop-dilution, CD agar), HY strain; format: cell-based
Text: as §1

E. coli ADC [5] = target: T1, E. coli ADC; set-up: method as in PMID 4571773; conditions: PLP binding to the apo-enzyme; cited from earlier work
mouse kidney ODC = target: T2, mouse kidney ODC (Mus musculus, UniProt P00860); set-up: method as in PMID 6810923; conditions: reversibly bound PLP; cited from earlier work
T2 construct: Aliquots of the supernatant were mixed with 1–5000 μM of AO-Agm and the ODC assay was carried out; from tissue; host or cells: C57Bl/6J male mouse kidney, 12,000 g supernatant of the homogenate
T2 sequence (P00860 1-461): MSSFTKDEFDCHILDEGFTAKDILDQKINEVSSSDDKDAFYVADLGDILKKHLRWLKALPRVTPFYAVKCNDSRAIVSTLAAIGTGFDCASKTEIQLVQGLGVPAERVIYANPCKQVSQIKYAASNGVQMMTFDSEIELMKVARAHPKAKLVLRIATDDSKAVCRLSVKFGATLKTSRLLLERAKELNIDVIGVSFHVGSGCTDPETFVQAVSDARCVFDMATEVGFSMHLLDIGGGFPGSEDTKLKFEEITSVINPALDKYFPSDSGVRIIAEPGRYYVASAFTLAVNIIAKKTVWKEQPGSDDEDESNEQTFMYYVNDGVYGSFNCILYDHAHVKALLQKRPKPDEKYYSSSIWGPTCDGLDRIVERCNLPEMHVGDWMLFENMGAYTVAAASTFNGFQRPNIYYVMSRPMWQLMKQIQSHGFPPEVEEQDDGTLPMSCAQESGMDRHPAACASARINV

Question: With `NCCCON` [APA, 1-aminooxy-3-aminopropane] as the molecule, how does the “Level remaining in the cell culture medium, of its initial concentration” value [1] read?
Answer: about 10%

Question: And the “ADC inhibition relative to AO-Agm (weaker)” value (E. coli ADC [2])?
Answer: 1000 times

Question: And the IC50 (E. coli ADC [2])?
Answer: 33 ± 2 µM

Question: And the “Growth of WT strain” value ([3]; 5 mM inhibitor)?
Answer: completely inhibited

Question: And the “Effect of 0.5 mM Spd on the growth arrest caused by the inhibitor” value ([3]; 5 mM inhibitor + 0.5 mM Spd)?
Answer: reversed the growth arrest

Question: What about the inhibition at 1000 µM ([3]; Hapsidospora chrysogena, ATCC11550, 1 mM inhibitor, 17th day after inoculation) of the same molecule?
Answer: ~95%

Question: What about the inhibition at 5000 µM ([3]; Hapsidospora chrysogena, ATCC11550, 336 h, 5 mM inhibitor, 14 days after inoculation on CD medium) of the same molecule?
Answer: 100%

Question: And the “Concentrations inhibiting mammalian ODC” value (mammalian ODC)?
Answer: nanomolar inhibitor; also recorded: nanomolar concentrations

Question: What about the “Growth inhibition compared with 5 mM” value ([4]; HY strain, 1 mM inhibitor) of the same molecule?
Answer: much less effective

Question: What about the inhibition at 5000 µM ([4]; Hapsidospora chrysogena, 336 h, read-out: Growth inhibition) of the same molecule?
Answer: 44%

Question: Which results are given for `Cc1ncc(COP(=O)(O)O)c(C=O)c1O` [PLP, pyridoxal-5’-phosphate]?
Answer: Km (E. coli ADC [5]): 600 nM; Km (mouse kidney ODC): 300 nM
